Assay results published in the NIST ThermoML archive (doi:10.1021/je050031f).

Tests used:
[1] = refractive index (Na D-line) (dimensionless); xn = mol fraction of the nth substance listed; conditions: 100.8 kPa, Liquid, Standard Abbe refractometry
[2] = xn = mol fraction of the nth substance listed; conditions: 100.8 kPa, Liquid

CC1CCCCC1 [methylcyclohexane] + CCO
Conditions | mass density, 288.15 K [kg/m3] | mass density, 298.15 K [kg/m3] | mass density, 308.15 K [kg/m3] | refractive index, 288.15 K | refractive index, 298.15 K | refractive index, 308.15 K | viscosity, 288.15 K [mPa·s] | viscosity, 298.15 K [mPa·s] | viscosity, 308.15 K [mPa·s]
[1], x2 = 0 | – | – | – | 1.42578 | 1.42053 | 1.41537 | – | – | –
[1], x2 = 0.05 | – | – | – | 1.42405 | 1.41871 | 1.41358 | – | – | –
[1], x2 = 0.1 | – | – | – | 1.42223 | 1.4169 | 1.41176 | – | – | –
[1], x2 = 0.15 | – | – | – | 1.42037 | 1.41505 | 1.40993 | – | – | –
[1], x2 = 0.2 | – | – | – | 1.41843 | 1.41313 | 1.40802 | – | – | –
[1], x2 = 0.25 | – | – | – | 1.41639 | 1.41112 | 1.40603 | – | – | –
[1], x2 = 0.3 | – | – | – | 1.41426 | 1.40902 | 1.40396 | – | – | –
[1], x2 = 0.35 | – | – | – | 1.41199 | 1.40679 | 1.40175 | – | – | –
[1], x2 = 0.4 | – | – | – | 1.4096 | 1.40442 | 1.39942 | – | – | –
[1], x2 = 0.45 | – | – | – | 1.40706 | 1.40192 | 1.39695 | – | – | –
[1], x2 = 0.5 | – | – | – | 1.40437 | 1.39927 | 1.39433 | – | – | –
[1], x2 = 0.55 | – | – | – | 1.4015 | 1.39644 | 1.39153 | – | – | –
[1], x2 = 0.6 | – | – | – | 1.39844 | 1.39343 | 1.38856 | – | – | –
[1], x2 = 0.65 | – | – | – | 1.39516 | 1.3902 | 1.38538 | – | – | –
[1], x2 = 0.7 | – | – | – | 1.39166 | 1.38674 | 1.38197 | – | – | –
[1], x2 = 0.75 | – | – | – | 1.38785 | 1.38298 | 1.37827 | – | – | –
[1], x2 = 0.8 | – | – | – | 1.38377 | 1.37896 | 1.37432 | – | – | –
[1], x2 = 0.85 | – | – | – | 1.37933 | 1.37459 | 1.37001 | – | – | –
[1], x2 = 0.9 | – | – | – | 1.37449 | 1.36985 | 1.36536 | – | – | –
[1], x2 = 0.95 | – | – | – | 1.36921 | 1.36474 | 1.36042 | – | – | –
[2], x2 = 0 | 773.4 | 765 | 756.3 | – | – | – | 0.784 | 0.685 | 0.6
[2], x2 = 0.05 | 773.4 | 764.6 | 755.8 | – | – | – | 0.771 | 0.674 | 0.589
[2], x2 = 0.1 | 773.4 | 764.7 | 755.7 | – | – | – | 0.769 | 0.67 | 0.588
[2], x2 = 0.15 | 773.7 | 764.8 | 755.8 | – | – | – | 0.77 | 0.667 | 0.585
[2], x2 = 0.2 | 774 | 765.1 | 756.1 | – | – | – | 0.779 | 0.673 | 0.588
[2], x2 = 0.25 | 774.3 | 765.4 | 756.4 | – | – | – | 0.793 | 0.681 | 0.593
[2], x2 = 0.3 | 774.7 | 765.8 | 756.8 | – | – | – | 0.811 | 0.694 | 0.602
[2], x2 = 0.35 | 775.1 | 766.2 | 757.2 | – | – | – | 0.831 | 0.707 | 0.612
[2], x2 = 0.4 | 775.7 | 766.8 | 757.8 | – | – | – | 0.853 | 0.722 | 0.623
[2], x2 = 0.45 | 776.3 | 767.4 | 758.4 | – | – | – | 0.877 | 0.739 | 0.635
[2], x2 = 0.5 | 777 | 768.1 | 759.1 | – | – | – | 0.902 | 0.757 | 0.65
[2], x2 = 0.55 | 777.8 | 768.9 | 759.9 | – | – | – | 0.928 | 0.778 | 0.666
[2], x2 = 0.6 | 778.7 | 769.8 | 760.8 | – | – | – | 0.955 | 0.799 | 0.683
[2], x2 = 0.65 | 779.6 | 770.8 | 761.8 | – | – | – | 0.983 | 0.82 | 0.7
[2], x2 = 0.7 | 780.8 | 772 | 763.1 | – | – | – | 1.012 | 0.843 | 0.72
[2], x2 = 0.75 | 782.1 | 773.4 | 764.5 | – | – | – | 1.043 | 0.867 | 0.74
[2], x2 = 0.8 | 783.6 | 774.9 | 766 | – | – | – | 1.077 | 0.894 | 0.762
[2], x2 = 0.85 | 785.4 | 776.7 | 767.9 | – | – | – | 1.114 | 0.926 | 0.79
[2], x2 = 0.9 | 787.7 | 779 | 770.2 | – | – | – | 1.164 | 0.971 | 0.828
[2], x2 = 0.95 | 790.4 | 781.8 | 773 | – | – | – | 1.225 | 1.021 | 0.867
